The source of these data is ChEMBL document CHEMBL5465560, “Selectivity Literature for EUbOPEN Chemogenomic Library” (2024).

For test [1], the system named is Epidermal growth factor receptor (Homo sapiens), P00533 [UNDEFINED MUTATION]. Nature of the test: Selectivity interaction (LanthaScreen Eu Kinase Binding Assay) EUB0001632a EGFR. The conditions noted are these: at 10 µM. In general terms: Time-resolved FRET reads energy transfer from a long-lived donor to a nearby acceptor.
The target of test [2] is Serine/threonine-protein kinase 32A (Homo sapiens) (UniProt Q8WU08). Nature of the test: Selectivity interaction (KinomeScan (DiscoverX)) EUB0000595a STK32A. The conditions noted are these: at 10 µM.
Serine/threonine-protein kinase 32A (Homo sapiens), sequence (Q8WU08 whole entry): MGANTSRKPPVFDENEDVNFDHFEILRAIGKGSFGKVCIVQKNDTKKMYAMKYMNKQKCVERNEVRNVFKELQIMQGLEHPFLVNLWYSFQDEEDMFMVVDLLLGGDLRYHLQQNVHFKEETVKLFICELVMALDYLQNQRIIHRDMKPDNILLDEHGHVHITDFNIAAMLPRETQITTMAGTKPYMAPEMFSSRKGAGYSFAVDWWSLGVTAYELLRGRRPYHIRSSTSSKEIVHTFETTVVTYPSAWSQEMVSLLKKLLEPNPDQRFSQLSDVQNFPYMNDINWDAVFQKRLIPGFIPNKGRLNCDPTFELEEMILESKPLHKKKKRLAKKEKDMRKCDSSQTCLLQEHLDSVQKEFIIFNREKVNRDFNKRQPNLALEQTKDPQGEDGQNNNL
The target of test [3] is Tyrosine-protein kinase CSK (Homo sapiens) (UniProt P41240). Nature of the test: Selectivity interaction (ActivX KiNativ screen (ex vivo kinase selectivity in human PBMCs)) EUB0001619a CSK. It is filed as cell-based. Conditions: PBMC, at 1 µM.
Tyrosine-protein kinase CSK (Homo sapiens), sequence (P41240 2-450 limits assumed): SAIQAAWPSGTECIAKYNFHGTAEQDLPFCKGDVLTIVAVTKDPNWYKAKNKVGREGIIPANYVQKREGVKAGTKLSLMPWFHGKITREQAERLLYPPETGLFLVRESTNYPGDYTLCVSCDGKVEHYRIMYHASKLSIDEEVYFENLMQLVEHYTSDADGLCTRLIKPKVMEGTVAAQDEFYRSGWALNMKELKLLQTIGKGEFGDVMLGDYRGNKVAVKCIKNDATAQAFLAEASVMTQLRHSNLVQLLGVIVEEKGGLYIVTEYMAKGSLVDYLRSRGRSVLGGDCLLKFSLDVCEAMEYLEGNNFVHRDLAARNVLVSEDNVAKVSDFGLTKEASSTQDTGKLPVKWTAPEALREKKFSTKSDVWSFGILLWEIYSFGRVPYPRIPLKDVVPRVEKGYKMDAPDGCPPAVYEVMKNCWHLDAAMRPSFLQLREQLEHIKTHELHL
Test [4] has as its target T1, MAP kinase-activated protein kinase 5 (Homo sapiens) (UniProt Q8IW41).
T1 sequence (whole entry): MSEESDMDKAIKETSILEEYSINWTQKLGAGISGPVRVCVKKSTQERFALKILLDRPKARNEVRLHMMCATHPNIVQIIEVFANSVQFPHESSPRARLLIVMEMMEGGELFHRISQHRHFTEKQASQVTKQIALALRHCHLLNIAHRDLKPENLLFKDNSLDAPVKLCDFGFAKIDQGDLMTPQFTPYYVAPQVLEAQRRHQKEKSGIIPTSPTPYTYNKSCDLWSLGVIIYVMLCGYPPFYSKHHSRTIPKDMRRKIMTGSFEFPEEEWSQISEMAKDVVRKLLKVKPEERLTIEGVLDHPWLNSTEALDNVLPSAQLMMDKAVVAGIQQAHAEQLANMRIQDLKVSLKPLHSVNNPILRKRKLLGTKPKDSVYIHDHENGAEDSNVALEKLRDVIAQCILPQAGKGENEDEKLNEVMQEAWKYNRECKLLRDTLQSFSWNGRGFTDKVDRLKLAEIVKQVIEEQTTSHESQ
Nature of the test: Selectivity interaction (KinomeScan (DiscoverX)) EUB0000666a MAPKAPK5. Conditions: at 10 µM.

The target of test [5] is T2, Serine/threonine-protein kinase DCLK2 (Homo sapiens) (UniProt Q8N568).
T2 sequence (whole entry): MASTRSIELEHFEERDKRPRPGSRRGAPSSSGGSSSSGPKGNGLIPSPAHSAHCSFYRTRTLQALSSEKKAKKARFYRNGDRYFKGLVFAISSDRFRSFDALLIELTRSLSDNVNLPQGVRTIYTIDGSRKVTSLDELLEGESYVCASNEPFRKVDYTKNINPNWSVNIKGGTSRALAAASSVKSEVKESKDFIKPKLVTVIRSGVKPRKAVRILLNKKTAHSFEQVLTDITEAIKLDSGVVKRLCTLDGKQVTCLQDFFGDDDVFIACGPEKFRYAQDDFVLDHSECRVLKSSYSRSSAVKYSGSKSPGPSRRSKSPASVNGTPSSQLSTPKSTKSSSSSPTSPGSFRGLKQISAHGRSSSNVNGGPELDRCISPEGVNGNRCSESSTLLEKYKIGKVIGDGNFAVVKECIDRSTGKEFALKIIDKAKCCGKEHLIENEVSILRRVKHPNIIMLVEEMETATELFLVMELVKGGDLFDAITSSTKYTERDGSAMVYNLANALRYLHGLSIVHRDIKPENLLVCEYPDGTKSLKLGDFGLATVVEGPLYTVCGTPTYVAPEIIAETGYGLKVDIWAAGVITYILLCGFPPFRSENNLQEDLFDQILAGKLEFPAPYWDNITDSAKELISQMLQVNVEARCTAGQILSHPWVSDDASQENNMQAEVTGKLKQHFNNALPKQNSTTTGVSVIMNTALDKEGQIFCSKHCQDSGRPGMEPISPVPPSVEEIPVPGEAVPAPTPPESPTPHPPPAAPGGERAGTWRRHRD
Nature of the test: Selectivity interaction (KinomeScan (DiscoverX)) EUB0000666a DCLK2. The conditions noted are these: at 10 µM.

The target in test [6] is STE20/SPS1-related proline-alanine-rich protein kinase (Homo sapiens) (UniProt Q9UEW8). Nature of the test: Selectivity interaction (KinomeScan (DiscoverX)) EUB0000045b STK39.
The target in test [7] is 4-aminobutyrate aminotransferase, mitochondrial (Homo sapiens, UniProt P80404). Nature of the test: Selectivity interaction (GPCR panel (PDSP screen)) EUB0000311b ABAT.
4-aminobutyrate aminotransferase, mitochondrial, sequence (P80404 whole entry): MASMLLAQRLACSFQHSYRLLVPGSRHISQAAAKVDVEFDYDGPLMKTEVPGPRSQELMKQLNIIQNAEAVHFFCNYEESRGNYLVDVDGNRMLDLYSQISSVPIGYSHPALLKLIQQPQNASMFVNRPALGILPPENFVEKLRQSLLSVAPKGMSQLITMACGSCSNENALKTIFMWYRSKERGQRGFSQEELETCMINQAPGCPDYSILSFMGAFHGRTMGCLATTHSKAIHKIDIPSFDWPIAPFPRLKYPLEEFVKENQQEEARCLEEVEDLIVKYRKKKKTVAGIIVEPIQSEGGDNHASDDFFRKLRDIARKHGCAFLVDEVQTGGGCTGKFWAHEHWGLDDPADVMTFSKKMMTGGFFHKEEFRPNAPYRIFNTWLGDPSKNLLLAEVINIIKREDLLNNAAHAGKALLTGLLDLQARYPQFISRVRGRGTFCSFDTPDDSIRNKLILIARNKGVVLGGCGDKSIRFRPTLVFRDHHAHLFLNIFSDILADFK
Test [8] deals with T3, Ephrin type-B receptor 6 (Homo sapiens) (UniProt O15197).
T3 sequence (whole entry): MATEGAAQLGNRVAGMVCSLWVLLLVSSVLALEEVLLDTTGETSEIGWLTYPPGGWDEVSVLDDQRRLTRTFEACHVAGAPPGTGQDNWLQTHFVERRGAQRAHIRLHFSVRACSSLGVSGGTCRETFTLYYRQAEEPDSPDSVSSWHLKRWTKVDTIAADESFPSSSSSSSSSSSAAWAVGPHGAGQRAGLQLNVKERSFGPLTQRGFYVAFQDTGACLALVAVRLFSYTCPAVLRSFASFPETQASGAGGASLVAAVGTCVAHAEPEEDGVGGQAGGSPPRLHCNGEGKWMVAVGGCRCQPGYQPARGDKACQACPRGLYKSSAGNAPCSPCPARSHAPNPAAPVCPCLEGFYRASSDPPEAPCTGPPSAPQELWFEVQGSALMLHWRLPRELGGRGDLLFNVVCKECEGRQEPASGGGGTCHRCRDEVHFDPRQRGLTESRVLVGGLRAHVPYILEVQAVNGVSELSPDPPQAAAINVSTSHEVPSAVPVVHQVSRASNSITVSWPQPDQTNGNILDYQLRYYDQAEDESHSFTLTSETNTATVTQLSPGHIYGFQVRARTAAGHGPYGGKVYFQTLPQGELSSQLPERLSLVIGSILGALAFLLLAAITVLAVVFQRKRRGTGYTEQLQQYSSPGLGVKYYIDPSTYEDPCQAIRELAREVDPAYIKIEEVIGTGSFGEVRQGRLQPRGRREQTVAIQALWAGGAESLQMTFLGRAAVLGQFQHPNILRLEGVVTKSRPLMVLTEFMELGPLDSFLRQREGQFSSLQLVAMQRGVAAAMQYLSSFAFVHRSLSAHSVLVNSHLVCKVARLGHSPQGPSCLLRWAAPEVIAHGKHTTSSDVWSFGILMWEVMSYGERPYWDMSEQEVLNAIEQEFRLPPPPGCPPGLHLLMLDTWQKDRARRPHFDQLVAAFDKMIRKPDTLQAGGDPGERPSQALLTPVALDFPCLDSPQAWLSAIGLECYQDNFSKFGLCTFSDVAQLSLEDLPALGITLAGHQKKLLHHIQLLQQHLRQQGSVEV
Nature of the test: Selectivity interaction (KinomeScan (DiscoverX)) EUB0000655a EPHB6. The conditions noted are these: at 10 µM.

Test [9] concerns the target cAMP-dependent protein kinase catalytic subunit beta (Homo sapiens) (UniProt P22694). Nature of the test: Selectivity interaction (KinomeScan (DiscoverX)) EUB0000229b PRKACB. The conditions noted are these: at 10 µM.
Test [10] has as its target Serine/threonine-protein kinase N1 (Homo sapiens, UniProt Q16512). Nature of the test: Selectivity interaction (Kinase panel (KiNativ target engagement assay in Jurkat cells)) EUB0001635a PKN1. The conditions noted are these: Selectivity number of off-targets 0.0, Selectivity number of targets 233.0, Source Knowledge https://www.sciencedirect.com/science/article/pii/S2451945619300674?via%3Dihub, at 1 µM. It is filed as cell-based.

Serine/threonine-protein kinase N1, sequence (Q16512 2-942 limits assumed): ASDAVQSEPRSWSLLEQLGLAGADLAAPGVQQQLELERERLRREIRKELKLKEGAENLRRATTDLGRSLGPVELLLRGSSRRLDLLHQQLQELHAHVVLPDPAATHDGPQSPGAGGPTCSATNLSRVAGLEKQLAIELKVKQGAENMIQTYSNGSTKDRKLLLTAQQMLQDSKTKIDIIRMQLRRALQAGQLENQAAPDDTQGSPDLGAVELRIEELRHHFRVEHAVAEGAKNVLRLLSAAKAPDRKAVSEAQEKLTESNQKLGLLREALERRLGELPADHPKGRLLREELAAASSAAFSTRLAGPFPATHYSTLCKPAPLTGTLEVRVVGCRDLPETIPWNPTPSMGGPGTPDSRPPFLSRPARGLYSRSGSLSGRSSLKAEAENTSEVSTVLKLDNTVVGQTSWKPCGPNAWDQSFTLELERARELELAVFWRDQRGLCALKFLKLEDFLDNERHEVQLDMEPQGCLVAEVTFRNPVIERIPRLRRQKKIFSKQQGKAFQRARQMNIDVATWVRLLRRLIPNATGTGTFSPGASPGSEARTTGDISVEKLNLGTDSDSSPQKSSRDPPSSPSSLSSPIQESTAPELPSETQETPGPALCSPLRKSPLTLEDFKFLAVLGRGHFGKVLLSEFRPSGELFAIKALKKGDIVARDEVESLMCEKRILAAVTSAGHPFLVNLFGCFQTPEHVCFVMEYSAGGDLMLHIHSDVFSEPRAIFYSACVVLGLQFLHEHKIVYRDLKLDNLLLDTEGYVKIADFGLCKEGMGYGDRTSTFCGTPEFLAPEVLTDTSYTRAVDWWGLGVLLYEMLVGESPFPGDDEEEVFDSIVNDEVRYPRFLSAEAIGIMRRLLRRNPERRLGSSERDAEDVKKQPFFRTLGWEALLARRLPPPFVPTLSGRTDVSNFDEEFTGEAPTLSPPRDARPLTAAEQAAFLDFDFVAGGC
Epidermal growth factor receptor (Homo sapiens), P00533 [UNDEFINED MUTATION], sequence (P00533 whole entry, looked up, change not shown): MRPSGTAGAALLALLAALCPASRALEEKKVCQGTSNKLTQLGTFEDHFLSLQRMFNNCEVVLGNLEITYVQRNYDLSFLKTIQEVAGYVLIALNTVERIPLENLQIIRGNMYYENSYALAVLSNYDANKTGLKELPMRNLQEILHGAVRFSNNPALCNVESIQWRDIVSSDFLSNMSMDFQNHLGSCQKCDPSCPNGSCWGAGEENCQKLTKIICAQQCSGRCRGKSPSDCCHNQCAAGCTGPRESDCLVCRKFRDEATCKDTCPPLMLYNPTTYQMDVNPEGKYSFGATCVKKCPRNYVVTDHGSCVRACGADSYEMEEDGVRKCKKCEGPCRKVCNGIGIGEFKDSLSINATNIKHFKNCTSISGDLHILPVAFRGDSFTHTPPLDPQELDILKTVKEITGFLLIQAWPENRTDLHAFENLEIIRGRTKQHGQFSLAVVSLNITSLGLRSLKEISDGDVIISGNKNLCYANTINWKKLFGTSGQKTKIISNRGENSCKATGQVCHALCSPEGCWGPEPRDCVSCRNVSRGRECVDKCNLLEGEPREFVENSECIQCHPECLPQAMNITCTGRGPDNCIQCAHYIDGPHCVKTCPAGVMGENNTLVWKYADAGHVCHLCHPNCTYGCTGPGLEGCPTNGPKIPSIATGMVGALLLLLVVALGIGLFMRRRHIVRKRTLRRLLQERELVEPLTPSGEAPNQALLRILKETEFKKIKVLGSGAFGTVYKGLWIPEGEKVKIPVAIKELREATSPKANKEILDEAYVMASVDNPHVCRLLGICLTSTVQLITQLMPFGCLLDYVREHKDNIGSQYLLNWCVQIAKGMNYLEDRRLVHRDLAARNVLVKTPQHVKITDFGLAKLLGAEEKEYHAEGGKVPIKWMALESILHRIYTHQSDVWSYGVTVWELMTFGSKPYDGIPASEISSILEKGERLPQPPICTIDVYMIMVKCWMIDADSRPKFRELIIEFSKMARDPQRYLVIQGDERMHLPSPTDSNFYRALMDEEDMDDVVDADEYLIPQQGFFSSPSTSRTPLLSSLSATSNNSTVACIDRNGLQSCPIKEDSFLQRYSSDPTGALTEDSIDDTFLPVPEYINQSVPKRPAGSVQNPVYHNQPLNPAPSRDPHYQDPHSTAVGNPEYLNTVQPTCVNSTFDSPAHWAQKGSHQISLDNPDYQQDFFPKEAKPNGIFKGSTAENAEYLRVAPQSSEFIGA

For the compound `Cn1cc(-n2cnc3c(NCc4nc5cc(Cl)c(Cl)cc5[nH]4)nc(N4CCOCC4)nc32)cn1`, the % of inhibition in test [1] is -12%.
`COCC(=O)NC/C=C/c1ccc2ncnc(Nc3ccc(Oc4ccc(C)nc4)c(C)c3)c2c1` [CP-724714] registered a % of control in [2] of 100%.
Consider `N#Cc1cccc(-c2c[nH]c3ncnc(N4CCOCC4)c23)c1`, for which the % of inhibition in test [3] is -45%.
Turning to `O=C(NOC[C@H](O)CO)c1ccc(F)c(F)c1Nc1ccc(I)cc1F`, the % of control in [4] and in test [5] was 100% each time.
As to `C=CC(=O)Nc1cc(-n2c(=O)ccc3cnc4ccc(-c5ccc(NS(C)(=O)=O)cc5)cc4c32)ccc1C`, the % of control in [6] (at 1 µM) worked out at 68%; in test [6] (at 10 µM) it was 100%.
Take `CCc1ccccc1C(=O)Nc1n[nH]c2c(C)c(F)c(C3C(C#N)=C(C)N(C)C(C)=C3C#N)cc12` [BAY-3827]: the Ki – broadly, the dissociation constant of the complex between target and ligand, obtained from inhibition or displacement – in test [7] turned out to be 222 nM. In other words, the sub-micromolar range.
On to `CN(C)CCOc1ccc(-c2nc(-c3ccncc3)c(-c3ccc4c(c3)CC/C4=N\O)[nH]2)cc1`, for which the % of control in test [8] worked out at 34%.
For the compound `COc1cc(N(C)c2ccnc3ccc(C(F)(F)F)cc23)cc(OC)c1OC`, in test [9], the % binding is 75%.
Take `C=CC(=O)Nc1ccc(C(=O)Nc2[nH]nc3c2CN(C(=O)N[C@H](CN(C)C)c2ccccc2)C3(C)C)cc1`: in [10], the % of engagement was -7.3%.
